Molecular target: Sodium channel protein type 10 subunit alpha (Homo sapiens, UniProt Q9Y5Y9)
Test: Not found
Text: Not found

Sodium channel protein type 10 subunit alpha, sequence (Q9Y5Y9 whole entry): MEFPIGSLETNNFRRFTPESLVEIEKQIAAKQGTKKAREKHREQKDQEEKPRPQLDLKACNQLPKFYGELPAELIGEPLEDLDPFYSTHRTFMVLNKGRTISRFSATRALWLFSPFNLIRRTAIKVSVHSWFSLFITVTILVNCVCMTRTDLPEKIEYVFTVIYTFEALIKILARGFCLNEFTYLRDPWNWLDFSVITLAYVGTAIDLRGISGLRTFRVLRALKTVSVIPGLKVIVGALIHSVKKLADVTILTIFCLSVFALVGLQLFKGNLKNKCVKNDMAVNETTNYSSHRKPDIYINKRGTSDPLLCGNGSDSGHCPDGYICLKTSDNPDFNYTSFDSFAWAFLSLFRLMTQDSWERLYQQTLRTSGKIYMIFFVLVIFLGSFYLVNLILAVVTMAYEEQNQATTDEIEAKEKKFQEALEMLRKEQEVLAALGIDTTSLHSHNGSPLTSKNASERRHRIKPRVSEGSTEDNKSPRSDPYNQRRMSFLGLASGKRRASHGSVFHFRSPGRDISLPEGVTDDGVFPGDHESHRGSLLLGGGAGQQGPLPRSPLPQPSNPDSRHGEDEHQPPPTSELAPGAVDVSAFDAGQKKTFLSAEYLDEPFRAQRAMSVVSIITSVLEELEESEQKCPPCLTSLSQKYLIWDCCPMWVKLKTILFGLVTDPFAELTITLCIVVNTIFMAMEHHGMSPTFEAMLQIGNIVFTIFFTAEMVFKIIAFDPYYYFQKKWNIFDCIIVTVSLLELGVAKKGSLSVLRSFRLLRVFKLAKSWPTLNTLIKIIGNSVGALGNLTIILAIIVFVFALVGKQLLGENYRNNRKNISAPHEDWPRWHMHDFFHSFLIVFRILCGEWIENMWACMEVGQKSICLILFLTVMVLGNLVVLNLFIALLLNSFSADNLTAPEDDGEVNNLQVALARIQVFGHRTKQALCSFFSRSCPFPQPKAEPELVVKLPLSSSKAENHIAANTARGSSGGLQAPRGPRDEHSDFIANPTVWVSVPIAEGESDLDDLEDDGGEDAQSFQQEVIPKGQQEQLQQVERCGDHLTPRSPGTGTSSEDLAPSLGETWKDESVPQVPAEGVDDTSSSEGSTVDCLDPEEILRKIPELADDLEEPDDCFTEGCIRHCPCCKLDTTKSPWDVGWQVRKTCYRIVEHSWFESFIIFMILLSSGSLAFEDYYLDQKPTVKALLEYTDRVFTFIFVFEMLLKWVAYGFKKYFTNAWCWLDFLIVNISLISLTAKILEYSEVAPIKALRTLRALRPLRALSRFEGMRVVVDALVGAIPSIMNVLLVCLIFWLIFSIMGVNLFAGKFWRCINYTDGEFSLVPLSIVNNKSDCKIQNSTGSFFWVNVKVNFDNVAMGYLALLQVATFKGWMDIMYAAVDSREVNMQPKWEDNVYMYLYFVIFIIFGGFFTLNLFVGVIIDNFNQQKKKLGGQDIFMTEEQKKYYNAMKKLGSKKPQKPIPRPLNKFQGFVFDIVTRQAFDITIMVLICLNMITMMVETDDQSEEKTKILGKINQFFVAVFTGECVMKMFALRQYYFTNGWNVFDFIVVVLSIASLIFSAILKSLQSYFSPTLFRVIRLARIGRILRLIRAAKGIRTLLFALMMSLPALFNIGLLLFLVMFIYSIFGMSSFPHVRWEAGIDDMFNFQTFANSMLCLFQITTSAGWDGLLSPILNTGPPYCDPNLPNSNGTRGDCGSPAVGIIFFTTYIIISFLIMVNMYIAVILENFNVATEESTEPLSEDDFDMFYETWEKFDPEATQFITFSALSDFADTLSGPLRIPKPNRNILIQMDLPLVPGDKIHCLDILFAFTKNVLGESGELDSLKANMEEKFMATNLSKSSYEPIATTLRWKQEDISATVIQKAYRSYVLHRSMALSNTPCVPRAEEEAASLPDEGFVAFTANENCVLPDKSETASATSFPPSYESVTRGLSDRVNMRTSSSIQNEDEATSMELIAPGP

- IC50: 49 nM
Structure (SMILES): Cc1nc(N2CCC(F)(F)C2)c(C(=O)Nc2cccc(S(N)(=O)=O)c2)c(C)c1Cl [US12344595, Example 5]

— BindingDB's records for patent US12344595 (Merck Sharp & Dohme, 2025)
